The test system of experiment [1] is formalin-induced hind paw licking and biting. The experiment in a line: Rat paw formalin test. The conditions noted are these: for effect on the early phase of the formalin response / minimum effective dose (MED), block of licking/biting behavior during the late phase of the formalin response: s.c. 1 hour before formalin; for effect on the early phase of the formalin response: early phase (0-10 minutes), any of the doses tested; for minimum effective dose (MED), block of licking/biting behavior during the late phase of the formalin response: late phase (10-45 minutes). The experiment is classed as in vivo. As to the method:
Test compounds were administered s.c. 1 hour before an intraplantar injection of 50 μL formalin. The time spent licking/biting the injected paw during the early and late phases was scored.
Male Sprague-Dawley rats (70-90 g) were habituated to perspex observation chambers (24 cm×24 cm×24 cm) for at least 15 minutes prior to testing. Formalin-induced hind paw licking and biting was initiated by a 50 μL subcutaneous injection of a 5% formalin solution (5% formaldehyde in isotonic saline) into the plantar surface of the left hind paw. Immediately following the formalin injection, licking/biting of the injected hind paw was scored in 5 minute bins for 60 minutes. The results are expressed as mean combined licking/biting time for the early phase (0-10 minutes) and late phase (10-45 minutes).

Experiment [2] deals with carrageenin-induced mechanical hyperalgesia. As to the kind of experiment: Carrageenin-induced mechanical hyperalgesia (rat paw pressure test). It is filed as in vivo. To be noted: for MED, antagonism of carrageenin-induced mechanical hyperalgesia: s.c. 3.5 hours after carrageenin. As to the method: Nociceptive pressure thresholds were measured in the rat using the paw pressure test. Baseline (BL) measurements were taken before animals were administered with 100 μL of 2% carrageenin by intraplantar injection. Results are shown as mean (±SEM) of 8 animals per group.
(§1) On the test Day, 2 to 3 baseline measurements were taken before rats (male Sprague-Dawley 70-90 g) were administered with 100 μL of 2% carrageenin by intraplantar injection into the right hind paw. Animals were dosed with the test drug after development of peak hyperalgesia. Separate groups of animals were used for the mechanical and thermal hyperalgesia studies.
Nociceptive pressure thresholds were measured in the rat paw pressure test using an analgesimeter (Ugo Basile). A cut-off point of 250 g was used to prevent any damage to the paw. The intraplantar injection of carrageenin produced a reduction in the nociceptive pressure threshold between 3 and 5 hours after injection, indicating induction of hyperalgesia. […] Gabapentin (3-300 mg/kg, s.c.) and CI-1008 (1-100 mg/kg, s.c.) dose-dependently antagonized the hyperalgesia, with respective MED of 10 and 3 mg/kg (FIG. 2).

Experiment [3] relates to carrageenin-induced thermal hyperalgesia. As to the kind of experiment: Carrageenin-induced thermal hyperalgesia (Hargreaves model). It is filed as in vivo, rat. The conditions noted are these: s.c. 2.5 hours after carrageenin; PWL at 3 and 4 hours. How it is done:
Nociceptive thermal thresholds were measured in the rat using the Hargreaves apparatus. Baseline (BL) measurements were taken before animal s were administered with 100 μL of 2% carrageenin by intraplantar injection. Results are shown as mean (±SEM) of 8 animals per group.
as §1
Baseline paw withdrawal latencies (PWL) were obtained for each rat using the Hargreaves model. Carrageenin was injected as described above. Animals were then tested for thermal hyperalgesia at 2 hours postcarrageenin administration. Gabapentin (10-100 mg/kg) or CI-1008 (1-30 mg/kg) was administered s.c. 2.5 hours after carrageenin, and PWL were reevaluated at 3 and 4 hours postcarrageenin administration. Carrageenin induced a significant reduction in paw withdrawal latency at 2, 3, and 4 hours following injection, indicating the induction of thermal hyperalgesia (FIG. 3). Gabapentin and CI-1008 dose-dependently antagonized the hyperalgesia with a MED of 30 and 3 mg/kg (FIG. 3).

Experiment [4] deals with thermal hyperalgesia after incision of the rat plantaris muscle. The experiment in a line: Thermal hyperalgesia in the rat postoperative pain model (rat plantar test). It is filed as in vivo. The conditions noted are these: for MED, block of development of thermal hyperalgesia: single dose s.c. before surgery (1 hour; morphine 0.5 hour). How it is done:
Gabapentin or S-(+)-3 isobutylgaba was administered 1 hour before surgery. Morphine was administered 0.5 hour before surgery. Thermal paw withdrawal latencies (PWL) were determined for both ipsilateral and contralateral paws using the rat plantar test. For clarity contralateral paw data for drug-treated animals is not shown. Baseline (BL) measurements were taken before surgery and PWL were reassessed 2, 24, 48, and 72 hours postsurgery. […] In the figure, —●— is vehicle contralateral, —◯— is vehicle ispsilateral, —Δ— is 1 mg/kg morphine, —▭— is 3, and —⋄— is 6 for morphine in 4a. In 4b, —Δ— is 3, —▭— is 10, and —⋄— is 30 for gabapentin. In 4c, —Δ— is 3 mg/kg, —▭— is 10, and —⋄— is 30 for S-(+)-isobutylgaba.
(§2) S-(+)-3-Isobutylgaba (S-(+)-IBG) was administered 1 hour after surgery. Thermal paw withdrawal latencies, determined using the rat plantar test, and paw withdrawal thresholds to von Frey hair filaments, were determined in separate groups of animals for both ipsilateral and contralateral paws. For clarity only the ipsilateral paw data is shown. Baseline (BL) measurements were taken before surgery and withdrawal thresholds were reassessed up to 6 hours postsurgery.
(§3) Male Sprague-Dawley rats (250-300 g), obtained from Bantin and Kingmen, (Hull, U. K.) were used in all experiments. Before surgery, animals were housed in groups of 6 under a 12-hour light/dark cycle (lights on at 07 hour 00 minute) with food and water ad libitum. Postoperatively, animals were housed in pairs on “Aqua-sorb” bedding consisting of air laid cellulose (Beta Medical and Scientific, Sale, U.K.) under the same conditions. All experiments were carried out by an observer blind to drug treatments.
(§4) Animals were anaesthetized with 2% isofluorane and 1.4 […] mixture which was maintained during surgery via a nose cone. The plantar surface of the right hind paw was prepared with 50% ethanol, and a 1-cm longitudinal incision was made through skin and fascia, starting 0.5 cm from the edge of the heel and extending towards the toes. The plantaris muscle was elevated using forceps and incised longitudinally. The wound was closed using two simple sutures of braided silk with a FST-02 needle. The wound site was covered with Terramycin spray and Auromycin powder. […] The sutures were removed after 48 hours.
Thermal hyperalgesia was assessed using the rat plantar test (Ugo Basile, Italy) following a modified method of Hargreaves, et al., 1988. Rats were habituated to the apparatus which consisted of three individual perspex boxes on an elevated glass table. A mobile radiant heat source was located under the table and focused onto the hind paw and paw withdrawal latencies (PWL) were recorded. There was an automatic cut off point of 22.5 seconds to prevent tissue damage. PWLs were taken 2 to 3 times for both hind paws of each animal, the mean of which represented baselines for right and left hind paws. The apparatus was calibrated to give a PWL of approximately 10 seconds. PWL(s) were reassessed following the same protocol as above 2, 24, 48, and 72 hours postoperatively.
(§5) Data obtained for thermal hyperalgesia was subjected to a one-way (analysis of variance) ANOVA followed by a Dunnett's t-test. Tactile allodynia results obtained with the von Frey hairs were subjected to an individual Mann Whitney t-test.

Experiment [5] relates to tactile allodynia after incision of the rat plantaris muscle. As to the kind of experiment: Tactile allodynia in the rat postoperative pain model (von Frey hairs). It is filed as in vivo. The conditions noted are these: for effect on tactile allodynia scores in the contralateral paw: up to the highest dose tested; for MED, prevention of development of tactile allodynia: s.c. 1 hour before surgery. As to the method:
Gabapentin or S-(+)-3-isobutylgaba was administered 1 hour before surgery. Morphine was administered 0.5 hour before surgery. Paw withdrawal thresholds to von Frey hair filaments were determined for both ipsilateral and contralateral paws. For clarity, contralateral paw data for drug-treated animals is not shown. Baseline (BL) measurements were taken before surgery, and withdrawal thresholds were reassessed 3, 25, 49, and 73 hours postsurgery. […] In FIG. 5, —●— is vehicle contralateral, —◯— is vehicle ispsilateral. For morphine (5a), —Δ— is 1 mg/kg, —▭— is 3, and —⋄— is 16.
as §2, §3, §4
Tactile allodynia was measured using Semmes-Weinstein von Frey hairs (Stoelting, Ill., U.S.A.). Animals were placed into wire-mesh-bottom cages allowing access to the underside of their paws. The animals were habituated to this environment prior to the start of the experiment. Tactile allodynia was tested by touching the plantar surface of the animals hind paw with von Frey hairs in ascending order of force (0.7, 1.2, 1.5, 2, 3.6, 5.5, 8.5, 11.8, 15. 1, and 29 g) until a paw withdrawal response was elicited. Each von Frey hair was applied to the paw for 6 seconds, or until a response occurred. Once a withdrawal response was established, the paw was retested, starting with the next descending von Frey hair until no response occurred. The highest force of 29 g lifted the paw as well as eliciting a response, thus represented the cut-off point. Each animal had both hind paws tested in this manner. The lowest amount of force required to elicit a response was recorded as withdrawal threshold in grams. When compounds were administered before surgery, the same animals were used to study drug effects on tactile, allodynia, and thermal hyperalgasia, with each animal being tested for tactile allodynia 1 hour after thermal hyperalgesia. Separate groups of animals were used for examination of tactile allodynia and thermal hyperalgesia when S-(+)-3-isobutylgaba was administered after surgery.
as §5

[6] abbreviates: 30 mg/kg s.c. 1 hour before surgery.
Where [7] appears, read: 30 mg/kg, 1 hour before surgery.

In the case of `CC(C)CC(CN)CC(=O)O` (centres unmarked) [3-aminomethyl-5-methyl-hexanoic acid, 3-aminomethyl-5-methylhexanoic acid], the “blockade of the late phase of the formalin response” value in experiment [1] (100 mg/kg s.c. 1 hour before formalin) was “only a modest blockade”.

As for `CC(C)C[C@H](CN)CC(=O)O` [CI-1008, (S)-3-(aminomethyl)-5-methylhexanoic acid], in experiment [1], the “effect on the early phase of the formalin response” value is reported as “neither of the compounds affected the early phase” and the “minimum effective dose (MED), block of licking/biting behavior during the late phase of the formalin response” value is 10 mg/kg. In addition, in experiment [2], the “MED, antagonism of carrageenin-induced mechanical hyperalgesia” value amounted to 3 mg/kg. Further, in experiment [3], the “MED, antagonism of carrageenin-induced thermal hyperalgesia” value is on record as 3 mg/kg. Moreover, the “duration of effect on thermal hyperalgesia” value in experiment [4] (setting [6]) was “up to 3 days”. Besides, the “effect on PWL of the contralateral paw in the thermal hyperalgesia test” value (from here on “effect on PWL of the contralateral paw”) in experiment [4] (up to the highest dose tested) is given as “did not affect PWL”. Also, the “MED, block of development of thermal hyperalgesia” value (“MED, block” for short) in experiment [4] is on record as 3 mg/kg. For the same compound, the “block of induction and maintenance of hyperalgesia” value in experiment [4] (summary statement) is recorded as “completely blocked”. Moreover, in experiment [5] (setting [7]), the “duration of blockade of the allodynia response” value amounted to 3 days. In addition, in experiment [5], the “effect on tactile allodynia scores in the contralateral paw” value is listed as “did not affect” and the “MED, prevention of development of tactile allodynia” value is listed as 10 mg/kg. In addition, in experiment [5] (summary statement), the “block of induction and maintenance of allodynia” value was “completely blocked”.

In the case of `NCC1(CC(=O)O)CCCCC1` [Gabapentin, 1-(aminomethyl)-cyclohexaneacetic acid], in experiment [1], the “effect on the early phase of the formalin response” value is on record as “neither of the compounds affected the early phase” and the “minimum effective dose (MED), block of licking/biting behavior during the late phase of the formalin response” value amounted to 30 mg/kg. The “MED, antagonism of carrageenin-induced mechanical hyperalgesia” value in experiment [2] is 10 mg/kg. In addition, in experiment [3], the “MED, antagonism of carrageenin-induced thermal hyperalgesia” value is recorded as 30 mg/kg. Further, the “duration of prevention of the hyperalgesic response” value in experiment [4] (setting [6]) came to 24 h. The “effect on PWL of the contralateral paw” value in experiment [4] (up to the highest dose tested) is “did not affect PWL”. For the same compound, the “MED, block” value in experiment [4] is 30 mg/kg. Besides, the “duration of effect on tactile allodynia” value in experiment [5] (10 mg/kg, 1 hour before surgery) worked out at 25 h. Besides, the “duration of effect on tactile allodynia” value in experiment [5] (setting [7]) was 49 h. In experiment [5], the “effect on tactile allodynia scores in the contralateral paw” value was “did not affect” and the “MED, prevention of development of tactile allodynia” value is 10 mg/kg.

As for `CN1CC[C@]23c4c5ccc(O)c4O[C@H]2[C@@H](O)C=C[C@H]3[C@H]1C5` [Morphine], the “effect on carrageenin-induced mechanical hyperalgesia” value in experiment [2] (3 mg/kg, s.c.) is “complete blockade of hyperalgesia”. The “effect on PWL of the contralateral paw” value in experiment [4] (6 mg, s.c., data not shown) is reported as “increased PWL of the contralateral paw”. For the same compound, the “duration of antagonism of development of thermal hyperalgesia” value in experiment [4] (1-6 mg/kg s.c. 0.5 hour before surgery) amounted to 24 h. Moreover, the “MED, block” value in experiment [4] stood at 1 mg/kg. In experiment [5] (highest dose of 6 mg/kg, 0.5 hour before surgery), the “duration of prevention of development of tactile allodynia” value worked out at 3 h.

These data come from patent USRE41920E1, “Isobutylgaba and its derivatives for the treatment of pain” (Warner-Lambert Company LLC, priority 1997, dated 2010).
